Converted amounts (≈) assume the structure as drawn.
Key:
[1] = test system: Cyberlindnera jadinii; assay: Antifungal against Candida utilis after 24 hrs by two fold serial dilution method; type: functional; settings: Williopsis jadinii
[2] = test system: Escherichia coli; assay: Antibacterial activity against Escherichia coli DH52 after 24 hrs by micro broth dilution assay; type: functional; settings: DH52, 24 h
[3] = test system: Bacillus subtilis; assay: Antibacterial activity against Bacillus subtilis after 24 hrs by micro broth dilution assay; type: functional
[4] = test system: Candida albicans; assay: Antifungal against Candida albicans ATCC 76615 after 24 hrs by two fold serial dilution method; type: functional; settings: ATCC 76615, 24 h
[5] = test system: Pichia norvegensis; assay: Antifungal against Candida mycoderma after 24 hrs by two fold serial dilution method; type: functional
[6] = test system: Escherichia coli; assay: Antibacterial activity against Escherichia coli JM109 after 24 hrs by micro broth dilution assay; type: functional; settings: JM109, 24 h
[7] = test system: Staphylococcus aureus; assay: Antibacterial activity against Staphylococcus aureus ATCC 25923 after 24 hrs by micro broth dilution assay; type: functional; settings: ATCC 25923, 24 h
[8] = test system: Shigella dysenteriae; assay: Antibacterial activity against Shigella dysenteriae after 24 hrs by micro broth dilution assay; type: functional
[9] = test system: Pseudomonas aeruginosa; assay: Antibacterial activity against Pseudomonas aeruginosa after 24 hrs by micro broth dilution assay; type: functional
[10] = test system: Staphylococcus aureus; assay: Antibacterial activity against methicillin-resistant Staphylococcus aureus N315 after 24 hrs by micro broth dilution assay; type: functional; settings: N315, 24 h
[11] = test system: Micrococcus luteus; assay: Antibacterial activity against Micrococcus luteus ATCC4698 after 24 hrs by micro broth dilution assay; type: functional; settings: ATCC4698, 24 h
[12] = test system: Aspergillus flavus; assay: Antifungal against Aspergillus flavus after 24 hrs by two fold serial dilution method; type: functional
[13] = test system: Bacillus; assay: Antibacterial activity against Bacillus proteus ATCC 13315 after 24 hrs by micro broth dilution assay; type: functional; settings: ATCC 13315, 24 h
[14] = test system: Salmonella typhi; assay: Antibacterial activity against Bacillus typhi after 24 hrs by micro broth dilution assay; type: functional, Salmonella enterica subsp. enterica serovar Typhi; settings: Salmonella enterica
[15] = test system: Saccharomyces cerevisiae; assay: Antifungal against Saccharomyces cerevisiae after 24 hrs by two fold serial dilution method; type: functional
[16] = test system: Pseudomonas aeruginosa; assay: Antibacterial activity against Pseudomonas aeruginosa incubated for 24 hrs followed by plating onto tryptic soy agar medium and measured after 24 hrs; type: functional
[17] = test system: Staphylococcus aureus; assay: Ratio of MBC for Staphylococcus aureus ATCC 25923 to MIC for Staphylococcus aureus ATCC 25923; type: functional
[18] = test system: Pseudomonas aeruginosa; assay: Ratio of MBC for Pseudomonas aeruginosa to MIC for Pseudomonas aeruginosa; type: functional
[19] = test system: Staphylococcus aureus; assay: Antibacterial activity against methicillin-resistant Staphylococcus aureus N315 incubated for 24 hrs followed by plating onto tryptic soy agar medium and measured after 24 hrs; type: functional; settings: N315, 24 h
[20] = test system: Staphylococcus aureus; assay: Antibacterial activity against Staphylococcus aureus ATCC 25923 incubated for 24 hrs followed by plating onto tryptic soy agar medium and measured after 24 hrs; type: functional; settings: ATCC 25923, 24 h
[21] = test system: Staphylococcus aureus; assay: Ratio of MBC for methicillin-resistant Staphylococcus aureus N315 to MIC for methicillin-resistant Staphylococcus aureus N315; type: functional

Compound	MIC [1] [µg/mL]	MIC [2] [µg/mL]	MIC [3] [µg/mL]	MIC [4] [µg/mL]	MIC [5] [µg/mL]	MIC [6] [µg/mL]	MIC [7] [µg/mL]	MIC [8] [µg/mL]	MIC [9] [µg/mL]	MIC [10] [µg/mL]	MIC [11] [µg/mL]	MIC [12] [µg/mL]	MIC [13] [µg/mL]	MIC [14] [µg/mL]	MIC [15] [µg/mL]	further results
O=C(/C=C/c1ccc(F)cc1)c1nc2ccccc2[nH]1	> 512	64 (≈ 240 µM)	64 (≈ 240 µM)	128 (≈ 481 µM)	128 (≈ 481 µM)	16 (≈ 60.1 µM)	16 (≈ 60.1 µM)	256 (≈ 961 µM)	128 (≈ 481 µM)	64 (≈ 240 µM)	16 (≈ 60.1 µM)	512 (≈ 1920 µM)	32 (≈ 120 µM)	32 (≈ 120 µM)	4 (≈ 15 µM)	–
O=C(/C=C/c1ccc(Cl)cc1)c1nc2ccccc2[nH]1	512 (≈ 1810 µM)	8 (≈ 28.3 µM)	512 (≈ 1810 µM)	512 (≈ 1810 µM)	512 (≈ 1810 µM)	256 (≈ 905 µM)	128 (≈ 453 µM)	512 (≈ 1810 µM)	512 (≈ 1810 µM)	512 (≈ 1810 µM)	64 (≈ 226 µM)	32 (≈ 113 µM)	512 (≈ 1810 µM)	512 (≈ 1810 µM)	128 (≈ 453 µM)	–
CCCCCCn1c(C(=O)/C=C/c2ccc(F)cc2)nc2ccccc21	512 (≈ 1460 µM)	32 (≈ 91.3 µM)	256 (≈ 731 µM)	256 (≈ 731 µM)	512 (≈ 1460 µM)	512 (≈ 1460 µM)	512 (≈ 1460 µM)	256 (≈ 731 µM)	512 (≈ 1460 µM)	512 (≈ 1460 µM)	16 (≈ 45.7 µM)	16 (≈ 45.7 µM)	64 (≈ 183 µM)	512 (≈ 1460 µM)	512 (≈ 1460 µM)	–
CCCCCCn1c(C(=O)/C=C/c2ccc(Cl)cc2)nc2ccccc21	512 (≈ 1400 µM)	16 (≈ 43.6 µM)	256 (≈ 698 µM)	512 (≈ 1400 µM)	128 (≈ 349 µM)	512 (≈ 1400 µM)	512 (≈ 1400 µM)	512 (≈ 1400 µM)	512 (≈ 1400 µM)	512 (≈ 1400 µM)	32 (≈ 87.2 µM)	128 (≈ 349 µM)	512 (≈ 1400 µM)	128 (≈ 349 µM)	8 (≈ 21.8 µM)	–
Nc1nc(-c2nc3ccccc3[nH]2)cc(-c2ccc(Cl)cc2Cl)n1	2 (≈ 5.61 µM)	16 (≈ 44.9 µM)	8 (≈ 22.5 µM)	1 (≈ 2.81 µM)	2 (≈ 5.61 µM)	64 (≈ 180 µM)	8 (≈ 22.5 µM)	16 (≈ 44.9 µM)	32 (≈ 89.8 µM)	8 (≈ 22.5 µM)	1 (≈ 2.81 µM)	8 (≈ 22.5 µM)	1 (≈ 2.81 µM)	16 (≈ 44.9 µM)	8 (≈ 22.5 µM)	MBC [16]: 64 µg/mL (≈ 180 µM); Ratio [17]: 1; Ratio [18]: 2; MBC [19]: 16 µg/mL (≈ 44.9 µM); MBC [20]: 8 µg/mL (≈ 22.5 µM); Ratio [21]: 2
CCCCCCn1c(-c2cc(-c3ccc(C)cc3)nc(N)n2)nc2ccccc21	8 (≈ 20.8 µM)	32 (≈ 83 µM)	128 (≈ 332 µM)	32 (≈ 83 µM)	8 (≈ 20.8 µM)	16 (≈ 41.5 µM)	128 (≈ 332 µM)	256 (≈ 664 µM)	64 (≈ 166 µM)	16 (≈ 41.5 µM)	16 (≈ 41.5 µM)	512 (≈ 1330 µM)	16 (≈ 41.5 µM)	16 (≈ 41.5 µM)	16 (≈ 41.5 µM)	–
CCCCCCn1c(-c2cc(-c3ccc(Cl)cc3Cl)nc(N)n2)nc2ccccc21	512 (≈ 1160 µM)	64 (≈ 145 µM)	512 (≈ 1160 µM)	256 (≈ 581 µM)	512 (≈ 1160 µM)	512 (≈ 1160 µM)	512 (≈ 1160 µM)	512 (≈ 1160 µM)	512 (≈ 1160 µM)	512 (≈ 1160 µM)	512 (≈ 1160 µM)	512 (≈ 1160 µM)	512 (≈ 1160 µM)	512 (≈ 1160 µM)	512 (≈ 1160 µM)	–
Cc1ccc(/C=C/C(=O)c2nc3ccccc3[nH]2)cc1	16 (≈ 61 µM)	8 (≈ 30.5 µM)	16 (≈ 61 µM)	4 (≈ 15.2 µM)	32 (≈ 122 µM)	4 (≈ 15.2 µM)	8 (≈ 30.5 µM)	16 (≈ 61 µM)	4 (≈ 15.2 µM)	8 (≈ 30.5 µM)	16 (≈ 61 µM)	16 (≈ 61 µM)	4 (≈ 15.2 µM)	2 (≈ 7.62 µM)	8 (≈ 30.5 µM)	–
CCCCCCCCn1c(C(=O)/C=C/c2ccc(C)cc2)nc2ccccc21	256 (≈ 684 µM)	512 (≈ 1370 µM)	512 (≈ 1370 µM)	256 (≈ 684 µM)	512 (≈ 1370 µM)	512 (≈ 1370 µM)	512 (≈ 1370 µM)	512 (≈ 1370 µM)	512 (≈ 1370 µM)	512 (≈ 1370 µM)	512 (≈ 1370 µM)	512 (≈ 1370 µM)	512 (≈ 1370 µM)	512 (≈ 1370 µM)	512 (≈ 1370 µM)	–
